Values joined by “and” are separate entries in the source; they are usually repeats but may differ in a detail not shown here. Equal values may be shown once.
Test system: human ZR-75-1 breast tumor xenografts
Assay: Growth of human ZR-75-1 breast tumor xenografts in OVX nude mice supplemented with estrone
Conditions: OVX+E1 0.5 μg nude mice, 9.5 months; for average tumor weight: E1 control 1.12±0.26

CC1=C(c2ccc(OC(=O)C(C)(C)C)cc2)[C@H](c2ccc(OCCN3CCCCC3)cc2)Oc2cc(OC(=O)C(C)(C)C)ccc21 [EM-800, (+)-7-pivaloyloxy-3-(4′-pivaloyloxyphenyl)-4-methyl-2-(4″-(2′″-piperidinoethoxy)phenyl)-2H-benzopyran]
Complete response, (%) (EM-800 15 μg orally daily): 29.4%
Complete response, number (EM-800 15 μg orally daily): 5
Partial response, (%) (EM-800 15 μg orally daily): 5.9%
Partial response, number (EM-800 15 μg orally daily): 1
Progression, (%) (EM-800 15 μg orally daily): 35.3%
Progression, number (EM-800 15 μg orally daily): 6
Stable response, (%) (EM-800 15 μg orally daily): 29.4%
Stable response, number (EM-800 15 μg orally daily): 5
inhibition of estrogen-stimulated ZR-75-1 tumor size (EM-800 15 μg orally daily): 88% and 87.5%
average tumor weight (EM-800 15 μg orally daily): 0.08 ± 0.03 g
Complete response, (%) (EM-800 50 μg orally daily): 25.0%
Complete response, number (EM-800 50 μg orally daily): 4
Partial response, (%) (EM-800 50 μg orally daily): 18.8%
Partial response, number (EM-800 50 μg orally daily): 3
Progression, (%) (EM-800 50 μg orally daily): 25.0%
Progression, number (EM-800 50 μg orally daily): 4
Stable response, (%) (EM-800 50 μg orally daily): 31.2%
Stable response, number (EM-800 50 μg orally daily): 5
inhibition of estrogen-stimulated ZR-75-1 tumor size (EM-800 50 μg orally daily): 93% and 93.5%
average tumor weight (EM-800 50 μg orally daily): 0.03 ± 0.01 g
Complete response, (%) (EM-800 100 μg orally daily): 50.0%
Complete response, number (EM-800 100 μg orally daily): 8
Partial response, (%) (EM-800 100 μg orally daily): 0 (0) %
Partial response, number (EM-800 100 μg orally daily): 0 (0)
Progression, (%) (EM-800 100 μg orally daily): 31.2%
Progression, number (EM-800 100 μg orally daily): 5
Stable response, (%) (EM-800 100 μg orally daily): 18.8%
Stable response, number (EM-800 100 μg orally daily): 3
inhibition of estrogen-stimulated ZR-75-1 tumor size (EM-800 100 μg orally daily): 94%
average tumor weight (EM-800 100 μg orally daily): 0.04 ± 0.03 g
